Laboratory results taken from patent publication US20260262643A1, “HERBICIDAL BENZOXAZINES” (FMC CORPORATION, priority 2022, published 2026).

Legend:
barnyardgrass [1] = assay: Test C preemergence; type: in vivo, Echinochloa crusgalli
In short: (§1)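 Seeds sown in loam soil–sand blend received a directed preemergence soil spray of test chemical in non-phytotoxic solvent with surfactant; postemergence plants (2–10 cm, one- to two-leaf stage) were sprayed with the same formulation. Greenhouse-held 10 days, then visually rated for injury versus untreated controls, 0 (no effect) to 100 (complete control).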

blackgrass [2] = assay: Test C preemergence; type: in vivo, Alopecurus myosuroides
In short: as §1

corn [3] = assay: Test C preemergence; type: in vivo, Zea mays
In short: as §1

green foxtail [4] = assay: Test C preemergence; type: in vivo, Setaria viridis
In short: as §1

kochia [5] = assay: Test C preemergence; type: in vivo, Bassia scoparia
In short: as §1

oat, wild [6] = assay: Test C preemergence; type: in vivo, Avena fatua
In short: as §1

pigweed, palmer [7] = assay: Test C preemergence; type: in vivo, Amaranthus palmeri
In short: as §1

ragweed [8] = assay: Test C preemergence; type: in vivo, Ambrosia artemisiifolia
In short: as §1

ryegrass, Italian [9] = assay: Test C preemergence; type: in vivo, Lolium multiflorum
In short: as §1

soybean [10] = assay: Test C preemergence; type: in vivo, Glycine max
In short: as §1

wheat [11] = assay: Test C preemergence; type: in vivo, Triticum aestivum
In short: as §1

barnyardgrass [12] = assay: Test C postemergence; type: in vivo, Echinochloa crusgalli; conditions: 10 days, 0 to 100 scale (0 no effect, 100 complete control)
In short: as §1

blackgrass [13] = assay: Test C postemergence; type: in vivo, Alopecurus myosuroides; conditions: 10 days, 0 to 100 scale (0 no effect, 100 complete control)
In short: as §1

corn [14] = assay: Test C postemergence; type: in vivo, Zea mays; conditions: 10 days, 0 to 100 scale (0 no effect, 100 complete control)
In short: as §1

green foxtail [15] = assay: Test C postemergence; type: in vivo, Setaria viridis; conditions: 10 days, 0 to 100 scale (0 no effect, 100 complete control)
In short: as §1

kochia [16] = assay: Test C postemergence; type: in vivo, Bassia scoparia; conditions: 10 days, 0 to 100 scale (0 no effect, 100 complete control)
In short: as §1

oat, wild [17] = assay: Test C postemergence; type: in vivo, Avena fatua; conditions: 10 days, 0 to 100 scale (0 no effect, 100 complete control)
In short: as §1

pigweed, palmer [18] = assay: Test C postemergence; type: in vivo, Amaranthus palmeri; conditions: 10 days, 0 to 100 scale (0 no effect, 100 complete control)
In short: as §1

ragweed [19] = assay: Test C postemergence; type: in vivo, Ambrosia artemisiifolia; conditions: 10 days, 0 to 100 scale (0 no effect, 100 complete control)
In short: as §1

ryegrass, Italian [20] = assay: Test C postemergence; type: in vivo, Lolium multiflorum; conditions: 10 days, 0 to 100 scale (0 no effect, 100 complete control)
In short: as §1

soybean [21] = assay: Test C postemergence; type: in vivo, Glycine max; conditions: 10 days, 0 to 100 scale (0 no effect, 100 complete control)
In short: as §1

wheat [22] = assay: Test C postemergence; type: in vivo, Triticum aestivum; conditions: 10 days, 0 to 100 scale (0 no effect, 100 complete control)
In short: as §1

galium = assay: Test C postemergence; type: in vivo, Galium aparine; conditions: 10 days, 0 to 100 scale (0 no effect, 100 complete control)
In short: as §1

horseweed = assay: Test C postemergence; type: in vivo, Erigeron canadensis; conditions: 10 days, 0 to 100 scale (0 no effect, 100 complete control)
In short: as §1

barnyardgrass [23] = assay: Test D flooded paddy test; type: in vivo, Echinochloa crus-galli; conditions: 250 g ai/ha, applied to paddy water, visual rating after 13 to 14 days, scale 0 to 100 (0 no effect, 100 complete control)
In short: (§2)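 Plants grown to the 2-leaf stage; pots flooded to 3 cm above soil at treatment and held at that depth throughout. Test compounds applied directly to the paddy water. After 13 to 14 days in a greenhouse, response was rated visually versus controls on a 0 (no effect) to 100 (complete control) scale.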

ducksalad = assay: Test D flooded paddy test; type: in vivo, Heteranthera limosa; conditions: 250 g ai/ha, applied to paddy water, visual rating after 13 to 14 days, scale 0 to 100 (0 no effect, 100 complete control)
In short: as §2

rice = assay: Test D flooded paddy test; type: in vivo, Oryza sativa; conditions: 250 g ai/ha, applied to paddy water, visual rating after 13 to 14 days, scale 0 to 100 (0 no effect, 100 complete control)
In short: as §2

sedge, umbrella = assay: Test D flooded paddy test; type: in vivo, Cyperus difformis; conditions: 250 g ai/ha, applied to paddy water, visual rating after 13 to 14 days, scale 0 to 100 (0 no effect, 100 complete control)
In short: as §2

[24] = 500 g ai/ha, preemergence, 0 to 100 scale (0 no effect, 100 complete control)
[25] = Preemergence, 125 g ai/ha, 0 to 100 scale, 0 no effect, 100 complete control

CCOC[C@H]1CN(C(=O)c2cc(-n3cnc(C(C)(C)C)n3)cc3c2OCCO3)c2cccc(Cl)c2O1 [Compound 388]
Barnyardgrass plant response rating (barnyardgrass [1]; [24]): 90
Plant response rating, Barnyardgrass (barnyardgrass [1]; [25]): 50
Blackgrass plant response rating (blackgrass [2]; [24]): 40
Plant response rating, Blackgrass (blackgrass [2]; [25]): 10
Corn plant response rating (corn [3]; [24]): 10
Plant response rating, Corn (corn [3]; [25]): . 10
Foxtail, Green plant response rating (green foxtail [4]; [24]): 100
Plant response rating, Foxtail, Green (green foxtail [4]; [25]): 60
Kochia plant response rating (kochia [5]; [24]): 100
Plant response rating, Kochia (kochia [5]; [25]): 40
Oat, Wild plant response rating (oat, wild [6]; [24]): 40
Plant response rating, Oat, Wild (oat, wild [6]; [25]): 20
Pigweed, Palmer plant response rating (pigweed, palmer [7]; [24]): 100
Plant response rating, Pigweed, Palmer (pigweed, palmer [7]; [25]): 100
Ragweed plant response rating (ragweed [8]; [24]): 60
Plant response rating, Ragweed (ragweed [8]; [25]): 60
Ryegrass, Italian plant response rating (ryegrass, Italian [9]; [24]): 60
Plant response rating, Ryegrass, Italian (ryegrass, Italian [9]; [25]): 50
Soybean plant response rating (soybean [10]; [24]): 90
Plant response rating, Soybean (soybean [10]; [25]): 90
Wheat plant response rating (wheat [11]; [24]): 20
Plant response rating, Wheat (wheat [11]; [25]): 20
Plant response rating, Barnyardgrass (barnyardgrass [12]; 500 g ai/ha, postemergence): 20
Plant response rating, Barnyardgrass (barnyardgrass [12]; Postemergence, 125 g ai/ha): 10
Plant response rating, Blackgrass (blackgrass [13]; 500 g ai/ha, postemergence): 0
Plant response rating, Blackgrass (blackgrass [13]; Postemergence, 125 g ai/ha): 0
Plant response rating, Corn (corn [14]; 500 g ai/ha, postemergence): 30
Plant response rating, Corn (corn [14]; Postemergence, 125 g ai/ha): 10
Plant response rating, Foxtail, Green (green foxtail [15]; 500 g ai/ha, postemergence): 90
Plant response rating, Foxtail, Green (green foxtail [15]; Postemergence, 125 g ai/ha): 10
Plant response rating, Kochia (kochia [16]; 500 g ai/ha, postemergence): 90
Plant response rating, Kochia (kochia [16]; Postemergence, 125 g ai/ha): 90
Plant response rating, Oat, Wild (oat, wild [17]; 500 g ai/ha, postemergence): 40
Plant response rating, Oat, Wild (oat, wild [17]; Postemergence, 125 g ai/ha): 20
Plant response rating, Pigweed, Palmer (pigweed, palmer [18]; 500 g ai/ha, postemergence): 100
Plant response rating, Pigweed, Palmer (pigweed, palmer [18]; Postemergence, 125 g ai/ha): 100
Plant response rating, Ragweed (ragweed [19]; 500 g ai/ha, postemergence): 50
Plant response rating, Ragweed (ragweed [19]; Postemergence, 125 g ai/ha): 60
Plant response rating, Ryegrass, Italian (ryegrass, Italian [20]; 500 g ai/ha, postemergence): 30
Plant response rating, Ryegrass, Italian (ryegrass, Italian [20]; Postemergence, 125 g ai/ha): 20
Plant response rating, Soybean (soybean [21]; 500 g ai/ha, postemergence): 100
Plant response rating, Soybean (soybean [21]; Postemergence, 125 g ai/ha): 100
Plant response rating, Wheat (wheat [22]; 500 g ai/ha, postemergence): 10
Plant response rating, Wheat (wheat [22]; Postemergence, 125 g ai/ha): 10
Plant response rating, Galium (galium; 500 g ai/ha, postemergence): 100
Plant response rating, Galium (galium; Postemergence, 125 g ai/ha): 70
Plant response rating, Horseweed (horseweed; 500 g ai/ha, postemergence): 30
Plant response rating, Horseweed (horseweed; Postemergence, 125 g ai/ha): 0
Plant response rating, Barnyardgrass (Flood) (barnyardgrass [23]): 0
Plant response rating, Ducksalad (Flood) (ducksalad): 0
Plant response rating, Rice (Flood) (rice): 0
Plant response rating, Sedge, Umbrella (Flood) (sedge, umbrella): 0
